# Experiments:
# Assay type in all cases: functional
# Streptococcus pneumoniae [1] = test: Antibacterial activity against penicillin-susceptible Streptococcus pneumoniae 1
# Staphylococcus aureus [2] = test: Antibacterial activity against methicillin-susceptible Staphylococcus aureus Smith
# Staphylococcus aureus [3] = test: Antibacterial activity against methicillin-resistant Staphylococcus aureus KMP9
# Staphylococcus aureus [4] = test: Antibacterial activity against methicillin-susceptible Staphylococcus aureus Smith infected iv dosed mouse 1 hr after inoculation
# Enterococcus faecium = test: Antibacterial activity against vancomycin-resistant Enterococcus faecium KU1778
# Staphylococcus aureus [5] = test: Antibacterial activity against methicillin-susceptible Staphylococcus aureus Smith infected twice iv dosed mouse 1 and 4 hrs after inoculation
# Moraxella catarrhalis = test: Antibacterial activity against Moraxella catarrhalis K1209
# Streptococcus pneumoniae [6] = test: Antibacterial activity against penicillin-resistant Streptococcus pneumoniae KT2524
# Streptococcus pyogenes = test: Antibacterial activity against Streptococcus pyogenes ATCC 12344
# Streptococcus pneumoniae [7] = test: Antibacterial activity against penicillin-susceptible Streptococcus pneumoniae ATCC 49619
# Haemophilus influenzae = test: Antibacterial activity against Haemophilus influenzae TH13
Structure (SMILES),MIC (Streptococcus pneumoniae [1]) [µg/mL],MIC (Staphylococcus aureus [2]) [µg/mL],MIC (Staphylococcus aureus [3]) [µg/mL],ED50 (Staphylococcus aureus [4]) [mg/kg],MIC (Enterococcus faecium) [µg/mL],ED50 (Staphylococcus aureus [5]) [mg/kg],MIC (Moraxella catarrhalis) [µg/mL],MIC (Streptococcus pneumoniae [6]) [µg/mL],MIC (Streptococcus pyogenes) [µg/mL],MIC (Streptococcus pneumoniae [7]) [µg/mL],MIC (Haemophilus influenzae) [µg/mL]
C=C[C@]1(C)C[C@@H](OC(=O)CSC2CCN(C(=O)CCn3cnc4c(N(C)C)nc(N)nc43)CC2)[C@]2(C)[C@H](C)CC[C@]3(CCC(=O)[C@@H]32)[C@@H](C)[C@@H]1O,0.05,0.1,0.1,> 3.13,0.1,,,,,,
C=C[C@]1(C)C[C@@H](OC(=O)CSC2CCN(C(=O)CCn3cnc4c(N)nc(N)nc43)CC2)[C@]2(C)[C@H](C)CC[C@]3(CCC(=O)[C@@H]32)[C@@H](C)[C@@H]1O,0.025,0.05,0.1,> 3.13,0.05,,,,,,
C=C[C@]1(C)C[C@@H](OC(=O)CSC2CCN(C(=O)CCn3cnc4c(N5CCCC5)nc(N)nc43)CC2)[C@]2(C)[C@H](C)CC[C@]3(CCC(=O)[C@@H]32)[C@@H](C)[C@@H]1O,0.2,0.39,0.39,> 3.13,0.39,,,,,,
C=C[C@]1(C)C[C@@H](OC(=O)CSC2CCN(C(=O)CCn3cnc4ncncc43)CC2)[C@]2(C)[C@H](C)CC[C@]3(CCC(=O)[C@@H]32)[C@@H](C)[C@@H]1O,0.1,0.1,0.1,> 3.13,0.1,,,,,,
C=C[C@]1(C)C[C@@H](OC(=O)CSC2CCN(C(=O)CCn3cnc4c(N5CCOCC5)nc(N)nc43)CC2)[C@]2(C)[C@H](C)CC[C@]3(CCC(=O)[C@@H]32)[C@@H](C)[C@@H]1O,0.1,0.2,0.2,,0.2,,,,,,
CC[C@]1(C)C[C@@H](OC(=O)CSc2nnc(N)[nH]2)[C@]2(C)[C@H](C)CC[C@]3(CCC(=O)[C@@H]32)[C@@H](C)[C@@H]1O,,0.5,2,,0.25,6.88,0.032,0.5,0.25,0.5,0.5
C=C[C@]1(C)C[C@@H](OC(=O)CSC2CCN(C(=O)CCn3cnc4c(N)ncnc43)CC2)[C@]2(C)[C@H](C)CC[C@]3(CCC(=O)[C@@H]32)[C@@H](C)[C@@H]1O,0.78,0.2,0.39,> 3.13,0.39,,,,,,
C=C[C@]1(C)C[C@@H](OC(=O)CSC2CCN(C(=O)CCn3cnc4c(NC)nc(N)nc43)CC2)[C@]2(C)[C@H](C)CC[C@]3(CCC(=O)[C@@H]32)[C@@H](C)[C@@H]1O,0.025,0.1,0.2,> 3.13,0.1,,,,,,
C=C[C@]1(C)C[C@@H](OC(=O)CSC2CCN(C(=O)CCCn3cnc4cnc(N)nc43)CC2)[C@]2(C)[C@H](C)CC[C@]3(CCC(=O)[C@@H]32)[C@@H](C)[C@@H]1O,0.78,0.1,0.2,> 3.13,0.1,,,,,,
C=C[C@]1(C)C[C@@H](OC(=O)CSC2CCN(C(=O)/C=C/n3cnc4cnc(N)nc43)CC2)[C@]2(C)[C@H](C)CC[C@]3(CCC(=O)[C@@H]32)[C@@H](C)[C@@H]1O,0.39,0.1,0.2,> 3.13,0.2,,,,,,
C=C[C@]1(C)C[C@@H](OC(=O)CSC2CCN(C(=O)CCn3cnc4cncnc43)CC2)[C@]2(C)[C@H](C)CC[C@]3(CCC(=O)[C@@H]32)[C@@H](C)[C@@H]1O,0.1,0.05,0.05,> 3.13,0.05,,,,,,
C=C[C@]1(C)C[C@@H](OC(=O)CSC2CCN(C(=O)CCn3cnc4cnc(N)nc43)CC2)[C@]2(C)[C@H](C)CC[C@]3(CCC(=O)[C@@H]32)[C@@H](C)[C@@H]1O,0.05,0.05,0.05,< 3.13,0.05,,0.25,0.063,0.063,0.125,2
C=C[C@]1(C)C[C@@H](OC(=O)CSC2CCN(C(=O)CCn3cnc4c(N5CCNCC5)nc(N)nc43)CC2)[C@]2(C)[C@H](C)CC[C@]3(CCC(=O)[C@@H]32)[C@@H](C)[C@@H]1O,0.063,0.25,0.5,< 3.13,0.25,1.51,0.25,0.063,0.032,0.063,1
C=C[C@]1(C)C[C@@H](OC(=O)CSC2CCN(C(=O)Cn3cnc4cncnc43)CC2)[C@]2(C)[C@H](C)CC[C@]3(CCC(=O)[C@@H]32)[C@@H](C)[C@@H]1O,1.56,0.2,0.2,,0.2,,,,,,
C=C[C@]1(C)C[C@@H](OC(=O)CSC2CCN(C(=O)CCn3cnc4c(N5CC(NC)C5)nc(N)nc43)CC2)[C@]2(C)[C@H](C)CC[C@]3(CCC(=O)[C@@H]32)[C@@H](C)[C@@H]1O,,0.5,1,3.97,0.5,,0.25,0.125,0.125,0.063,2

# — ChEMBL document CHEMBL1145592, “Pleuromutilin derivatives having a purine ring. Part 1: new compounds with promising antibacterial activity against resistant Gram-positive pathogens” (2008)
